Measurements taken from US9920010B2, “CXCR7 receptor modulators” (IDORSIA PHARMACEUTICALS LTD, priority 2013, dated 2018).

Biological target: T1, CXCR7 (Homo sapiens, UniProt P25106)
T1 construct: host or cells: CHO-K1 (PathHunter CHO-K1 CXCR7 b-arrestin cell line, stably transfected)
Assay: PathHunter CHO-K1 CXCR7 b-arrestin recruitment assay (CXCR7 agonistic activity)
Type: cell-based
Details: PathHunter CHO-K1 CXCR7 b-arrestin cell line
Outline: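 Stable CHO-K1 line with C-terminally ProLink-tagged CXCR7 and β-arrestin 2–EA fusion; β-arrestin recruitment restores β-gal activity, read by chemiluminescence after 1 h RT detection. Cells seeded 24 h, starved in OPTIMEM 3–4 h, exposed to compounds 90 min at 37 °C in HBSS/HEPES/BSA. Geometric-mean EC50 from repeated measurements.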

T1 sequence (P25106 whole entry): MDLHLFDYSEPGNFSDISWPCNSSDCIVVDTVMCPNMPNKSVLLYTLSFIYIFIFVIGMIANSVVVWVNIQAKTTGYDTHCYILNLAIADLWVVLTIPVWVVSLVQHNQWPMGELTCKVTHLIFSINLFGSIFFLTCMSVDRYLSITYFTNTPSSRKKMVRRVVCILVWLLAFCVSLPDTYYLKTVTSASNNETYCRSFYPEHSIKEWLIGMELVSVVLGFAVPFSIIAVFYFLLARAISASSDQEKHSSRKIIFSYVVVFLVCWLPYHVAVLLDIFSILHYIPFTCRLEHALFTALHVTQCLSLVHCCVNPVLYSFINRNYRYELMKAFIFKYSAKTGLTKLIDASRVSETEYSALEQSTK
T1 sequence (P32121 whole entry partner): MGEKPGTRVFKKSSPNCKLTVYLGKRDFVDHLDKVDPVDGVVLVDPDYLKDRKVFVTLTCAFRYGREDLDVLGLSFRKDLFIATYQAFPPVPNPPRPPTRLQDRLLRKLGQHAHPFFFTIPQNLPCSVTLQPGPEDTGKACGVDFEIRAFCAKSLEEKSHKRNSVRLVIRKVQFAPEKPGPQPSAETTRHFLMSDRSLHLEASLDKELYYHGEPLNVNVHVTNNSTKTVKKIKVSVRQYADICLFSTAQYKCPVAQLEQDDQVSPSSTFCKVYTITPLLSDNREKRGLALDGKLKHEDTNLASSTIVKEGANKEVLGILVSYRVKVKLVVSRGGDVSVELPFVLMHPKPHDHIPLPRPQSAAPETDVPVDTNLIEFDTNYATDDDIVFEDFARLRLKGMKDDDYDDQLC

EC50 | Compound
1 nM | CN(CCN(Cc1ccccc1C(F)(F)F)C(=O)CNc1cccc2c1CCN(CC1CC1)C2)CC1CC1 [compound 450, N-[2-(Cyclopropylmethyl-methyl-amino)-ethyl]-2-(2-cyclopropylmethyl-1,2,3,4-tetrahydro-isoquinolin-5-ylamino)-N-(2-trifluoromethyl-benzyl)-acetamide]
377 nM | CCN1CCc2cccc(NCC(=O)N(CCC(C)C)Cc3ccccc3C(F)(F)F)c2C1 [compound 513]
3 nM | CN(C)CCN(Cc1ccccc1C(F)(F)F)C(=O)CCc1cccc2c1CN(CC1CC1)CC2 [compound 454, 3-(2-Cyclopropylmethyl-1,2,3,4-tetrahydro-isoquinolin-8-yl)-N-(2-dimethylamino-ethyl)-N-(2-trifluoromethyl-benzyl)-propionamide]
59 nM | CN(C)CCN(Cc1ncccc1Cl)C(=O)CNc1cccc2c1CN(C(=O)[C@H]1C[C@H]1F)CC2 (relative stereo) [compound 459]
37 nM | CNCCN(Cc1ncccc1C(F)(F)F)C(=O)CNc1cccc2c1CCN(C(=O)C1CCC1)C2 [compound 414, 2-(2-Cyclobutanecarbonyl-1,2,3,4-tetrahydro-isoquinolin-5-ylamino)-N-(2-methylamino-ethyl)-N-(3-trifluoromethyl-pyridin-2-ylmethyl)-acetamide]
7 nM | CN(C)CCN(Cc1ccccc1C(F)(F)F)C(=O)CNc1cccc2c1CN(C(=O)N1CCCC1)CC2 [compound 561, N-(2-Dimethylamino-ethyl)-2-[2-(pyrrolidine-1-carbonyl)-1,2,3,4-tetrahydro-isoquinolin-8-ylamino]-N-(2-trifluoromethyl-benzyl)-acetamide]
21 nM | CCN1CCc2cccc(NCC(=O)N(CCN(C)C)Cc3ccccc3F)c2C1 [compound 491, N-(2-Dimethylamino-ethyl)-2-(2-ethyl-1,2,3,4-tetrahydro-isoquinolin-8-ylamino)-N-(2-fluoro-benzyl)-acetamide]
79 nM | CCN1CCc2cccc(NCC(=O)N(CCN(C)C)Cc3ccc(C)cc3)c2C1 [compound 496]
93 nM | CCN1CCc2cccc(NCC(=O)N(CCN(C)C)Cc3ccc(F)cc3)c2C1 [compound 504]
17 nM | CN(C)CCN(Cc1ccccc1C(F)(F)F)C(=O)CNc1cccc2c1CN(C)CC2 [compound 564, N-(2-Dimethylamino-ethyl)-2-(2-methyl-1,2,3,4-tetrahydro-isoquinolin-8-ylamino)-N-(2-trifluoromethyl-benzyl)-acetamide]
6 nM | O=C(CNc1cccc2c1CCN(CC1CC1)C2)N(Cc1ccccc1C(F)(F)F)C[C@H]1CCNC1 [compound 380]
60 nM | CNCCN(Cc1ccccc1C(F)(F)F)C(=O)CNc1cccc2c1CCN(C(=O)NC(C)C)C2 [compound 404]
8 nM | CNCCN(Cc1ccccc1C(F)(F)F)C(=O)CNc1cccc2c1CCN(CC1CC1)C2C (racemic) [compound 382]
6 nM | CNCCN(Cc1ncccc1C(F)(F)F)C(=O)CNc1cccc2c1CCN(C(=O)OC)C2 [compound 419, 5-({[(2-Methylamino-ethyl)-(3-trifluoromethyl-pyridin-2-ylmethyl)-carbamoyl]-methyl}-amino)-3,4-dihydro-1H-isoquinoline-2-carboxylic acid methyl ester]
80 nM | CNCCN(Cc1ccccc1C(F)(F)F)C(=O)CNc1cccc2c1CCN(C(=O)NC(C)(C)C)C2 [compound 406]
56 nM | CCN1CCc2cccc(NCC(=O)N(Cc3ccccc3)C3CCN(C)C3)c2C1 (racemic) [compound 512]

More lines, now with the values behind:

Compound | EC50
COCCN1CCc2c(cccc2NCC(=O)N(Cc2ccccc2C(F)(F)F)CC2(C)COC2)C1 [Example 303, 2-[2-(2-Methoxy-ethyl)-1,2,3,4-tetrahydro-isoquinolin-5-ylamino]-N-(3-methyl-oxetan-3-ylmethyl)-N-(2-trifluoromethyl-benzyl)-acetamide] | 246 nM
CN(C)CCN(Cc1ccncc1)C(=O)CNc1cccc2c1CCN(CC1CC1)C2 [Example 268, 2-(2-Cyclopropylmethyl-1,2,3,4-tetrahydro-isoquinolin-5-ylamino)-N-(2-dimethylamino-ethyl)-N-pyridin-4-ylmethyl-acetamide] | 350 nM
CN(C)CCN(Cc1ccnn1C)C(=O)CNc1cccc2c1CCN(CC1CC1)C2 [Example 264, 2-(2-Cyclopropylmethyl-1,2,3,4-tetrahydro-isoquinolin-5-ylamino)-N-(2-dimethylamino-ethyl)-N-(2-methyl-2H-pyrazol-3-ylmethyl)-acetamide] | 374 nM
COCCN1CCc2c(/C=C/C(=O)N(Cc3ccccc3C(F)(F)F)CC(O)COC)cccc2C1 (stereo not shown) [Example 321, (E)-N-(2-Hydroxy-3-methoxy-propyl)-3-[2-(2-methoxy-ethyl}-1,2,3,4-tetrahydro-isoquinolin-5-yl]-N-(2-trifluoromethyl-benzyl)-acrylamide] | 244 nM
COC(=O)N1CCc2cccc(OCC(=O)N(CCN(C)C)Cc3ccccc3)c2C1 [Example 204, 8-{[Benzyl-(2-dimethylamino-ethyl)-carbamoyl]-methoxy}-3,4-dihydro-1H-isoquinoline-2-carboxylic acid methyl ester] | 40 nM
N#CCCN(Cc1ccccc1)C(=O)CNc1cccc2c1CCN(CC1CC1)C2 [Example 67, N-Benzyl-N-(2-cyano-ethyl)-2-(2-cyclopropylmethyl-1,2,3,4-tetrahydro-isoquinolin-5-ylamino)-acetamide] | 115 nM
CC(C)OC(=O)N1CCc2cccc(NCC(=O)N(CCN(C)C)Cc3ccccc3)c2C1 [compound 192, 8-({[Benzyl-(2-dimethylamino-ethyl)-carbamoyl]-methyl}-amino)-3,4-dihydro-1H-isoquinoline-2-carboxylic acid isopropyl ester] | 38 nM
CN(C)CCN(Cc1ncccc1C(F)(F)F)C(=O)CNc1ccc(F)c2c1CCN(CC1CC1)C2 [Example 289, 2-(2-Cyclopropylmethyl-8-fluoro-1,2,3,4-tetrahydro-isoquinolin-5-ylamino)-N-(2-dimethylamino-ethyl)-N-(3-trifluoromethyl-pyridin-2-ylmethyl)-acetamide] | 16 nM
CCN1CCc2c(/C=C/C(=O)N(CCN(C)C)Cc3ccccc3Cl)cccc2C1 [compound 145, (E)-N-(2-Chloro-benzyl)-N-(2-dimethylamino-ethyl)-3-(2-ethyl-1,2,3,4-tetrahydro-isoquinolin-5-yl)-acrylamide] | 8 nM
COCCN1CCc2c(cccc2NCC(=O)N(CCC(C)(C)C)Cc2ncccc2C)C1 [Example 298, N-(3,3-Dimethyl-butyl)-2-[2-(2-methoxy-ethyl)-1,2,3,4-tetrahydro-isoquinolin-5-ylamino]-N-(3-methyl-pyridin-2-ylmethyl)-acetamide] | 114 nM
CC(C)N1CCc2cccc(NCC(=O)N(CCN(C)C)Cc3ccccc3)c2C1 [compound 186] | 91 nM
O=C(/C=C/c1cccc2c1CCN(CC1CC1)C2)N(CCO)Cc1ccccc1 [Example 138, (E)-N-Benzyl-3-(2-cyclopropylmethyl-1,2,3,4-tetrahydro-isoquinolin-5-yl)-N-(2-hydroxy-ethyl)-acrylamide] | 55 nM
CCN1CCc2c(cccc2OCC(=O)N(CCN(C)C)Cc2ccccc2)C1 [compound 165] | 61 nM
CN(C)CCN(Cc1ccccc1)C(=O)CNc1cccc2c1C(=O)N(C)CC2 [compound 184] | 270 nM
O=C(CNc1cccc2c1CCN(CC1CC1)C2)N(CCN1CCC(F)(F)C1)Cc1ccccc1C(F)(F)F [Example 282, 2-(2-Cyclopropylmethyl-1,2,3,4-tetrahydro-isoquinolin-5-ylamino)-N-[2-(3,3-difluoro-pyrrolidin-1-yl)-ethyl]-N-(2-trifluoromethyl-benzyl)-acetamide] | 47 nM
COCCN1CCc2c(CCC(=O)N(Cc3ncccc3Cl)CC(C)(C)O)cccc2C1 [Example 347, N-(3-Chloro-pyridin-2-ylmethyl)-N-(2-hydroxy-2-methyl-propyl)-3-[2-(2-methoxy-ethyl)-1,2,3,4-tetrahydro-isoquinolin-5-yl]-propionamide] | 445 nM
COCCN1CCc2c(/C=C/C(=O)N(CCN(C)C(=O)OC(C)(C)C)Cc3ccccc3C(F)(F)F)cccc2C1 [Example 319, {2-[{(E)-3-[2-(2-Methoxy-ethyl)-1,2,3,4-tetrahydro-isoquinolin-5-yl]-acryloyl}-(2-trifluoromethyl-benzyl)-amino]-ethyl}-methyl-carbamic acid tert-butyl ester] | 443 nM
CN(C)CCN(Cc1ncccn1)C(=O)CNc1cccc2c1CCN(CC1CC1)C2 [Example 260, 2-(2-Cyclopropylmethyl-1,2,3,4-tetrahydro-isoquinolin-5-ylamino)-N-(2-dimethylamino-ethyl)-N-pyrimidin-2-ylmethyl-acetamide] | 125 nM
N#CCCN(Cc1ccccc1C(F)(F)F)C(=O)CNc1cccc2c1CCN(CC1CC1)C2 [Example 72, N-(2-Cyano-ethyl)-2-(2-cyclopropylmethyl-1,2,3,4-tetrahydro-isoquinolin-5-ylamino)-N-(2-trifluoromethyl-benzyl)-acetamide] | 28 nM
CC(C)(O)CN(Cc1ncccc1Cl)C(=O)/C=C/c1cccc2c1CCN(C(=O)[C@H]1C[C@H]1F)C2 (racemic) [Example 331, rac-(E)-N-(3-Chloro-pyridin-2-ylmethyl)-3-[2-((1R*,2R*)-2-fluoro-cyclopropanecarbonyl)-1,2,3,4-tetrahydro-isoquinolin-5-yl]-N-(2-hydroxy-2-methyl-propyl)-acrylamide] | 314 nM
CN(C)CCN(Cc1cncc(Cl)c1)C(=O)CNc1cccc2c1CCN(CC1CC1)C2 [Example 262, N-(5-Chloro-pyridin-3-ylmethyl)-2-(2-cyclopropylmethyl-1,2,3,4-tetrahydro-isoquinolin-5-ylamino)-N-(2-dimethylamino-ethyl)-acetamide] | 62 nM
